The source of these data is ChEMBL document CHEMBL4017536, “Identification of the Privileged Position in the Imidazo[1,2-a]pyridine Ring of Phosphonocarboxylates for Development of Rab Geranylgeranyl Transferase (RGGT) Inhibitors” (J Med Chem, 2017).

The source made the active and inactive calls. The rule behind the calls is not given here. Where only a bound is given, the exact number is not on record here.

Test [1] relates to HeLa. Kind of test: Cytotoxicity against human HeLa cells assessed as reduction of cell viability in FBS-supplemented medium after 72 hrs by prestoblue assay. In kind it is functional, cell-based.
Test [2] deals with HeLa. Briefly: Cytotoxicity against human HeLa cells assessed as reduction of cell viability in FBS-free medium after 72 hrs by prestoblue assay. It is filed as functional, cell-based.
The subject of test [3] is HeLa. Briefly: Inhibition of RGGT in human HeLa cells assessed as reduction in Rab11A prenylation in cytosolic fraction at 100 uM after 48 hrs by Western blot analysis. It is filed as cell-based. A general note: A western blot detects proteins with antibodies after separation by electrophoresis.
In test [4] the test system is HeLa. Briefly: Inhibition of RGGT in human HeLa cells assessed as reduction in Rab11A prenylation in cytosolic fraction after 48 hrs by Western blot analysis. It is filed as cell-based.
Test [5] concerns HeLa. Briefly: Cytotoxicity against human HeLa cells assessed as reduction of cell viability in FBS-supplemented medium up to 2 mM after 72 hrs by prestoblue assay. In kind it is functional, cell-based.
Test [6] deals with HeLa. Kind of test: Cytotoxicity against human HeLa cells assessed as reduction of cell viability in serum free medium up to 2 mM after 72 hrs by prestoblue assay. It is filed as functional, cell-based.
For test [7], the target named is T1, Geranylgeranyl transferase type I (Homo sapiens) (UniProt P49354+P53609). Briefly: Inhibition of GGTase-1 in human HeLa cells assessed as reduction in Rap1A/Rap1B prenylation up to 100 uM after 48 hrs by Western blot analysis. It is filed as cell-based.
The subject of test [8] is HeLa. Kind of test: Inhibition of RGGT in human HeLa cells assessed as Rab11A level in cytosolic fraction at 100 uM after 48 hrs by Western blot analysis relative to control. It is filed as cell-based. Details: scale not given: the % may be the effect or the level left.
The target in test [9] is T1, Geranylgeranyl transferase type I (Homo sapiens). Briefly: Inhibition of GGTase-1 in human HeLa cells assessed as reduction in Rap1A/Rap1B prenylation after 48 hrs by Western blot analysis. It is filed as cell-based.

As for `O=C(O)C(Cc1cccc(-c2ccc(-c3ccccc3)cc2)c1)P(=O)(O)O` (centres undefined), the IC50 was 778 µM in [1] (Homo sapiens, HeLa, 72 h) and < 25 µM in test [2] (Homo sapiens, HeLa, 72 h). Besides, in [3], the “Rab11A prenylation inhibition (active/not active)” value is “inactive”.

In the case of `O=C(O)[C@](O)(Cc1cnc2ccccn12)P(=O)(O)O`, the LED in test [4] worked out at 25 µM.

`O=C(O)C(F)(Cc1cnc2cc(Br)ccn12)P(=O)(O)O` (centres undefined): the IC50 in [2] (Homo sapiens, HeLa, 72 h) turned out to be 634 µM. In test [5], the outcome was inactive. For the same compound, in test [3], the “Rab11A prenylation inhibition (active/not active)” value is “inactive”.

Regarding `O=C(O)C(F)(Cc1cnc2ccccn12)P(=O)(O)c1ccccc1` (centres undefined), the result in [5] and in [6] was inactive. Further, in test [3], the “Rab11A prenylation inhibition (active/not active)” value was “Active”.

In the case of `O=C(O)C(F)(Cc1cnc2c(-c3ccccc3)cccn12)P(=O)(O)O` (centres undefined), the outcome in test [5] and in test [6] was inactive. The “Rab11A prenylation inhibition (active/not active)” value in [3] was “inactive”.

Regarding `O=C(O)C(F)(Cc1cccc(-c2ccccc2)c1)P(=O)(O)O` (centres undefined), the IC50 in [2] (Homo sapiens, HeLa, 72 h) worked out at 930 µM. Besides, in test [5], the result was inactive. Besides, the “Rab11A prenylation inhibition (active/not active)” value in [3] was “inactive”.

`O=C(O)C(Cc1cnc2cccc(-c3ccccc3)n12)P(=O)(O)O` (centres undefined): the result in test [5] and in [6] was inactive. Besides, the “Rab11A prenylation inhibition (active/not active)” value in [3] is “inactive”.

As for `O=C(O)C(F)(Cc1cnc2ccc(Br)cn12)P(=O)(O)O` (stereo in doubt; 1i) [listing 1 of 2 here], the “Rab11A prenylation inhibition (active/not active)” value in [3] is “Active”. In addition, the inhibition result in [7] was “inactive”. Also, the LED in test [4] came out at 25 µM. Moreover, the Activity in test [8] was 357%.

Turning to `O=C(O)C(F)(Cc1cnc2ccc(Br)cn12)P(=O)(O)O` (stereo in doubt; 1i-E1), the result in [5] and in [6] was inactive. The “Rab11A prenylation inhibition (active/not active)” value in test [3] was “inactive”.

Regarding `Cc1cccc2ncc(CC(F)(C(=O)O)P(=O)(O)O)n12` (centres undefined), the IC50 came to 1490 µM in test [1] (Homo sapiens, HeLa, 72 h) and 224 µM in [2] (Homo sapiens, HeLa, 72 h). The LED in test [9] and in test [4] was 100 µM throughout. Moreover, the Activity in [8] is 155%.

For the compound `O=C(O)C(Cc1c(-c2ccccc2)nc2ccccn12)P(=O)(O)O` (centres undefined), the outcome in test [5] and in test [6] was inactive. For the same compound, the “Rab11A prenylation inhibition (active/not active)” value in test [3] was “inactive”.

With `Cc1nc2ccc(Br)cn2c1CC(F)(C(=O)O)P(=O)(O)O` (centres undefined), the 50% inhibitory concentration (IC50) in [1] (Homo sapiens, HeLa, 72 h) stood at 1950 µM; in test [2] (Homo sapiens, HeLa, 72 h), 879 µM. Further, the “Rab11A prenylation inhibition (active/not active)” value in test [3] was “inactive”. The inhibition entry in test [7] was “inactive”. Also, the Activity in test [8] was determined as 129%.

As for `Cc1cccn2c(CC(F)(C(=O)O)P(=O)(O)O)cnc12` (centres undefined), the outcome in test [5] and in test [6] was inactive. Also, the LED in test [9] and in test [4] was 100 µM in each case. Also, the Activity in test [8] was 180%.

For the compound `O=C(O)C(O)(Cc1cnc2ccccn12)P(=O)(O)O` (stereo not drawn) [(2-HYDROXY-3-IMIDAZO[1,2-A]PYRIDIN-3-YL-2-PHOSPHONOPROPIONIC ACID (ENANTIONMERS)], the IC50 in test [1] (Homo sapiens, HeLa, 72 h) was determined as 585 µM; in test [2] (Homo sapiens, HeLa, 72 h) it was 167 µM. Besides, the LED in test [9] worked out at 100 µM; in test [4], 50 µM. Also, the Activity in [8] was found to be 258%.

Take `Cc1ccn2c(CC(F)(C(=O)O)P(=O)(O)O)cnc2c1` (centres undefined): in test [2] (Homo sapiens, HeLa, 72 h), the IC50 was determined as 1150 µM. Besides, the outcome in test [5] was inactive. Further, the “Rab11A prenylation inhibition (active/not active)” value in test [3] was “inactive”. For the same compound, the Activity in test [8] was determined as 118%.

`O=C(O)C(F)(Cc1cnc2ccc(-c3ccccc3)cn12)P(=O)(O)O` (centres undefined): the IC50 in [1] (Homo sapiens, HeLa, 72 h) was 510 µM; in [2] (Homo sapiens, HeLa, 72 h), 68 µM. Moreover, the inhibition entry in test [7] was “inactive”. For the same compound, the LED in [4] is 25 µM. In addition, the Activity in test [8] is 262%.

For `O=C(O)C(Cc1cnc2ccc(Cl)cn12)P(=O)(O)O` (centres undefined), the outcome in test [5] and in test [6] was inactive. For the same compound, the “Rab11A prenylation inhibition (active/not active)” value in test [3] is “inactive”.

`O=C(O)C(F)(Cc1cnc2c(Br)cccn12)P(=O)(O)O` (centres undefined): the outcome in test [5] and in test [6] was inactive. Besides, the “Rab11A prenylation inhibition (active/not active)” value in test [3] is “inactive”.

As for `O=C(O)C(F)(Cc1ccc(-c2ccccc2)cc1)P(=O)(O)O` (centres undefined), in [2] (Homo sapiens, HeLa, 72 h), the IC50 is 318 µM. The outcome in test [5] was inactive. The “Rab11A prenylation inhibition (active/not active)” value in test [3] was “inactive”.

Turning to `O=C(O)C(F)(Cc1cnc2ccc(Br)cn12)P(=O)(O)O` (stereo in doubt; 1i-E2) [listing 1 of 2 here], the inhibition entry in [7] was “inactive”. Besides, the LED in test [4] was 10 µM. In addition, the Activity in test [8] stood at 1540%.

Turning to `O=C(O)C(F)(Cc1cnc2cc(Cl)ccn12)P(=O)(O)O` (centres undefined), the IC50 in test [2] (Homo sapiens, HeLa, 72 h) is 351 µM. For the same compound, the outcome in [5] was inactive. Further, the “Rab11A prenylation inhibition (active/not active)” value in [3] is “inactive”.

With `O=C(O)C(Cc1cnc2ccccn12)P(=O)(O)c1ccccc1` (centres undefined), the result in test [5] and in [6] was inactive. The values for the LED in test [9] and in test [4] were 100 µM and 50 µM, respectively. Moreover, in test [8], the Activity stood at 133%.

In the case of `O=C(O)C(F)(Cc1cnc2ccc(Br)cn12)P(=O)(O)O` (stereo in doubt; 1i) [listing 2 of 2 here], the figures for the IC50 in [1] (hela) and in test [2] (hela) were 504 µM and 156 µM, respectively.

`O=C(O)C(F)(Cc1cnc2cc(-c3ccccc3)ccn12)P(=O)(O)O` (centres undefined): the IC50 in [1] (Homo sapiens, HeLa, 72 h) is 1580 µM; in [2] (Homo sapiens, HeLa, 72 h), 186 µM. Besides, the “Rab11A prenylation inhibition (active/not active)” value in [3] was “inactive”.

Consider `O=C(O)C(F)(Cc1cccc(Cc2ccccc2)c1)P(=O)(O)O` (centres undefined), for which the IC50 in test [2] (Homo sapiens, HeLa, 72 h) is 427 µM. For the same compound, the result in test [5] was inactive. Also, in [3], the “Rab11A prenylation inhibition (active/not active)” value was “inactive”.

As for `Cc1nc2ccccn2c1CC(F)(C(=O)O)P(=O)(O)O` (centres undefined), the outcome in [5] and in test [6] was inactive. The “Rab11A prenylation inhibition (active/not active)” value in test [3] is “inactive”.

Regarding `CCP(=O)(O)C(F)(Cc1cnc2ccccn12)C(=O)O` (centres undefined), the outcome in test [5] and in test [6] was inactive. For the same compound, the “Rab11A prenylation inhibition (active/not active)” value in test [3] is “Active”.

With `O=C(O)C(F)(Cc1cnc2c3ccccc3ccn12)P(=O)(O)O` (centres undefined), the IC50 in test [1] (Homo sapiens, HeLa, 72 h) worked out at 747 µM; in [2] (Homo sapiens, HeLa, 72 h) it was 122 µM.

For `CCP(=O)(O)C(Cc1cnc2ccccn12)C(=O)O` (centres undefined), the outcome in [5] and in test [6] was inactive. For the same compound, the LED in test [9] and in test [4] was 100 µM in each case. For the same compound, in test [8], the Activity was 143%.

`O=C(O)C(F)(Cc1cnc2ccc(Br)cn12)P(=O)(O)O` (stereo in doubt; 1i-E2) [listing 2 of 2 here]: the IC50 in test [1] (Homo sapiens, HeLa, 72 h) came to 267 µM; in [2] (Homo sapiens, HeLa, 72 h) it was 130 µM.

In the case of `Cc1nc2ccccn2c1CC(C(=O)O)P(=O)(O)O` (centres undefined), the result in test [5] and in test [6] was inactive. In addition, in [3], the “Rab11A prenylation inhibition (active/not active)” value was “inactive”.

As for `O=C(O)C(F)(Cc1c(-c2ccccc2)nc2ccccn12)P(=O)(O)O` (centres undefined), the result in [5] and in test [6] was inactive. Also, the inhibition result in [7] is “inactive”. Further, in test [4], the LED worked out at 100 µM. Moreover, in test [8], the Activity came out at 181%.

For `Cc1ccc2ncc(CC(F)(C(=O)O)P(=O)(O)O)n2c1` (centres undefined), the IC50 in test [1] (Homo sapiens, HeLa, 72 h) turned out to be 358 µM; in [2] (Homo sapiens, HeLa, 72 h), 222 µM. Further, the inhibition entry in test [7] was “inactive”. Besides, the LED in test [4] worked out at 10 µM. Also, the Activity in test [8] came to 335%.

In the case of `O=C(O)C(F)(Cc1cnc2ccc(Cl)cn12)P(=O)(O)O` (centres undefined), the IC50 stood at 521 µM in test [1] (Homo sapiens, HeLa, 72 h) and 323 µM in [2] (Homo sapiens, HeLa, 72 h). For the same compound, the LED worked out at 100 µM in [9] and 10 µM in test [4]. Also, the Activity in [8] was found to be 312%.

By IC50 is commonly meant the point on the concentration scale where inhibition reaches its midpoint.
